Results from publication PMC5561075, “Identification and Characterization of a Bacterial Homolog of Chloride Intracellular Channel (CLIC) Protein” (Scientific Reports, 2017).

Target: Ec SspA (Escherichia coli, UniProt P0ACA3)
Experiment: single-channel recording in planar lipid bilayers
Type: biochemical
Conditions: channel blocker, POPE:POPS:cholesterol 4:1:1, 500 mM KCl cis vs 50 mM KCl trans, 10 mM Tris-HCl pH 7.4, 1 mM DTT, room temperature

Chain of Ec SspA (P0ACA3 whole entry): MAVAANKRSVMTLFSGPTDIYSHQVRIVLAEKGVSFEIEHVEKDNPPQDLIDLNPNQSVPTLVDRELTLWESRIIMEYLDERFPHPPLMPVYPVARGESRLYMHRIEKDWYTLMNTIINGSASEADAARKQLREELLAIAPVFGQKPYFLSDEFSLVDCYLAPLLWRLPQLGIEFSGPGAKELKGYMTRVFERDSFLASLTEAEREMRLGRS

- open probability at 100 μM: 0.1 ± 0.05
Compound: CC1(C2CCCC2)Cc2cc(OCC(=O)O)c(Cl)c(Cl)c2C1=O (stereo not shown) [IAA-94]
